From ChEMBL document CHEMBL5729210, “Benzodiazepine derivatives as RSV inhibitors” (2022)

test: RSV-A Assay: The description is Japanese.

Compound | EC50
O=C1Nc2ccccc2C(c2ccccc2)=NC1Nc1nnc(-c2ccncn2)o1 (centres undefined) | > 800 nM
Cn1cc(-c2nnc(NC3N=C(c4ccccc4)c4ccccc4NC3=O)o2)cn1 (centres undefined) | in the range around 600 nM
Cc1ccc(-c2nnc(NC3N=C(c4ccccc4)c4ccccc4NC3=O)o2)o1 (centres undefined) | > 800 nM
O=C(O)c1ccc(-n2cncn2)cc1N1CCOCC1 | in the range around 600 nM
O=C1Nc2ccccc2C(c2ccccc2)=NC1Nc1nnc(-c2ccc(F)cc2F)o1 (centres undefined) | > 800 nM
O=C1Nc2ccccc2C(c2ccccc2)=NC1Nc1nc(Cl)ns1 (centres undefined) | > 800 nM
O=C1Nc2ccccc2C(c2ccccc2)=NC1Nc1nc2ccc(F)cc2o1 (centres undefined) | > 800 nM
O=C1Nc2ccccc2C(c2ccccc2)=NC1Nc1nnc(-c2ccc(N3CCOCC3)cc2)o1 (centres undefined) | < 400 nM
CN1CCc2nc(-c3nnc(NC4N=C(c5ccccc5)c5ccccc5NC4=O)o3)sc2C1 (centres undefined) | > 800 nM
Cc1nc(-c2nnc(NC3N=C(c4ccccc4)c4ccccc4NC3=O)o2)ccc1F (centres undefined) | > 800 nM
COc1ccc(CN2C(=O)C(Nc3ccc(-c4ccccc4)nn3)N=C(c3ccccc3)c3ccccc32)cc1 (centres undefined) | in the range around 600 nM
O=C1Nc2ccccc2C(c2ccccc2)=NC1Nc1nnc(-c2cc(F)ccc2N2CCOCC2)o1 (centres undefined) | in the range around 600 nM
O=C1Nc2ccccc2C(c2ccccc2)=NC1Nc1nnc(-c2ccc(F)cc2N2CCOCC2)o1 (centres undefined) | < 400 nM
O=C1Nc2ccccc2C(c2ccccc2)=N[C@@H]1Nc1nnc(-c2ccc(N3CCOCC3)cc2F)o1 | < 400 nM
CC(=O)N1CCC(c2nnc(NC3N=C(c4ccccc4)c4ccccc4NC3=O)o2)CC1 (centres undefined) | > 800 nM
O=c1c(Br)cccn1Cc1ccccc1 | > 800 nM
O=C1Nc2ccccc2C(c2ccccc2)=NC1Nc1nnc(-c2cnccc2N2CCOCC2)o1 (centres undefined) | in the range around 600 nM
O=C1Nc2ccccc2C(c2ccccc2)=NC1Nc1nnc(-c2ncccn2)o1 (centres undefined) | > 800 nM
O=C1Nc2ccccc2C(c2ccccc2)=NC1Nc1nnc(-c2ccc(F)cc2)s1 (centres undefined) | > 800 nM
O=C1Nc2ccccc2C(c2ccccc2)=NC1Nc1nnc(-c2cnccn2)o1 (centres undefined) | > 800 nM
O=C1Nc2ccccc2C(c2ccccc2)=NC1Nc1nnc(-c2cscn2)o1 (centres undefined) | in the range around 600 nM
COCCN(C)c1ccc(-c2nnc(NC3N=C(c4ccccc4)c4ccccc4NC3=O)o2)cc1 (centres undefined) | > 800 nM
O=C1Nc2ccccc2C(c2ccccc2)=NC1Nc1ncc(-c2ccccc2)o1 (centres undefined) | > 800 nM
O=C1Nc2ccccc2C(c2ccccc2)=N[C@H]1Nc1nnc(-c2ccccc2N2CCOCC2)o1 | > 800 nM
COc1cc(-c2nnc(NC3N=C(c4ccccc4)c4ccccc4NC3=O)o2)ccn1 (centres undefined) | > 800 nM

Compound | EC50
O=C1Nc2ccccc2C(c2ccccc2)=NC1Nc1nc2cc(F)ccc2o1 (centres undefined) | > 800 nM
O=C1Nc2ccccc2C(c2ccccc2)=NC1Nc1nnc(-c2cncs2)o1 (centres undefined) | > 800 nM
O=C1Nc2ccccc2C(c2ccccc2)=NC1Nc1nnc(-c2cncnc2)o1 (centres undefined) | > 800 nM
O=C1Nc2ccccc2C(c2ccccc2)=NC1Nc1nc(-c2ccccc2)cs1 (centres undefined) | > 800 nM
O=C1Nc2ccccc2C(c2ccccc2)=N[C@H]1Nc1nnc(-c2ccc(N3CCOCC3)cc2)o1 | > 800 nM
O=C1Nc2ccccc2C(c2ccccc2)=NC1Nc1nnc(-c2ccccc2)[nH]1 (centres undefined) | > 800 nM
CN(C)Cc1ccc(-c2nnc(NC3N=C(c4ccccc4)c4ccccc4NC3=O)o2)o1 (centres undefined) | > 800 nM
O=C1Nc2ccccc2C(c2ccccc2)=NC1Nc1cc(Oc2ccccc2)ncn1 (centres undefined) | > 800 nM
O=C1Nc2ccccc2C(c2ccccc2)=N[C@H]1Nc1nnc(-c2ccc(N3CCOCC3)cc2F)o1 | > 800 nM
O=C1Nc2ccccc2C(c2ccccc2)=NC1Nc1nnc(-c2ccc(-n3cccn3)cc2N2CCOCC2)o1 (centres undefined) | < 400 nM
O=C1Nc2ccccc2C(c2ccccc2)=NC1Nc1ccnc(-c2ccccc2)n1 (centres undefined) | > 800 nM
O=C1Nc2ccccc2C(c2ccccc2)=NC1Nc1nc2ccccc2o1 (centres undefined) | > 800 nM
Cn1ccnc1-c1nnc(NC2N=C(c3ccccc3)c3ccccc3NC2=O)o1 (centres undefined) | > 800 nM
O=C1Nc2ccccc2C(c2ccccc2)=N[C@@H]1Nc1nnc(-c2ccccc2N2CCOCC2)o1 | < 400 nM
O=C1Nc2ccccc2C(c2ccccc2)=NC1Nc1nnc(-c2ccc(N3CCOCC3)nc2)o1 (centres undefined) | < 400 nM
O=C1Nc2ccccc2C(c2ccccc2)=NC1Nc1nnc(-c2ccc3nc[nH]c3c2)o1 (centres undefined) | > 800 nM and in the range around 600 nM
CCOC(=O)c1nnc(NC2N=C(c3ccccc3)c3ccccc3NC2=O)o1 (centres undefined) | > 800 nM
O=C1Nc2ccccc2C(c2ccccc2)=NC1Nc1nnc(-c2cccnn2)o1 (centres undefined) | > 800 nM
O=C1Nc2ccccc2C(c2ccccc2)=NC1Nc1ncc2ccccc2n1 (centres undefined) | > 800 nM
N#Cc1ccc(-c2nnc(NC3N=C(c4ccccc4)c4ccccc4NC3=O)s2)cc1 (centres undefined) | in the range around 600 nM
CN(C)c1ccc(-c2nnc(NC3N=C(c4ccccc4)c4ccccc4NC3=O)o2)nc1 (centres undefined) | > 800 nM
O=C1Nc2ccccc2C(c2ccccc2)=NC1Nc1nc2ccc(Cl)cc2o1 (centres undefined) | > 800 nM
O=C1Nc2ccccc2C(c2ccccc2)=NC1Nc1nnc(-c2ccc(=O)[nH]c2)o1 (centres undefined) | > 800 nM
O=C1Nc2ccccc2C(c2ccccc2)=NC1Nc1nnc(-c2cccnc2N2CCOCC2)o1 (centres undefined) | < 400 nM
O=C1Nc2ccccc2C(c2ccccc2)=NC1Nc1nnc(-c2cnco2)o1 (centres undefined) | > 800 nM

Compound | EC50
COc1ccc(-c2nnc(NC3N=C(c4ccccc4)c4ccccc4NC3=O)o2)cn1 (centres undefined) | < 400 nM
O=C1Nc2ccccc2C(c2ccccc2)=NC1Nc1nnc(-c2ccc(N3CCOCC3)c(F)c2)o1 (centres undefined) | > 800 nM
COCc1ccc(-c2nnc(NC3N=C(c4ccccc4)c4ccccc4NC3=O)o2)o1 (centres undefined) | > 800 nM
O=C1Nc2ccccc2C(c2ccccc2)=NC1Nc1nnc(-c2ccc(C(F)(F)F)cc2N2CCOCC2)o1 (centres undefined) | < 400 nM
O=C1Nc2ccccc2C(c2ccccc2)=NC1Nc1nc2c(F)cccc2o1 (centres undefined) | > 800 nM
Cc1ccc2oc(NC3N=C(c4ccccc4)c4ccccc4NC3=O)nc2c1 (centres undefined) | > 800 nM
O=C1Nc2ccccc2C(c2ccccc2)=NC1Nc1nnc(-c2ccc(N3CCOCC3)cn2)o1 (centres undefined) | > 800 nM
COCCNc1ccc(-c2nnc(NC3N=C(c4ccccc4)c4ccccc4NC3=O)o2)cc1 (centres undefined) | > 800 nM
O=C1Nc2ccccc2C(c2ccccc2)=NC1Nc1nnc(-c2ncco2)o1 (centres undefined) | > 800 nM
O=C1Nc2ccccc2C(c2ccccc2)=NC1Nc1nnc(-c2cc[nH]c(=O)c2)o1 (centres undefined) | > 800 nM
CN1CCC(c2nnc(NC3N=C(c4ccccc4)c4ccccc4NC3=O)o2)CC1 (centres undefined) | > 800 nM
COc1cccc(-c2nnc(NC3N=C(c4ccccc4)c4ccccc4NC3=O)o2)n1 (centres undefined) | < 400 nM
COc1ccc(CN2C(=O)C(C)(N=[N+]=[N-])N=C(c3ccccc3)c3ccccc32)cc1 (centres undefined) | > 800 nM
O=C1Nc2ccccc2C(c2ccccc2)=NC1Nc1cc(-c2ccccc2)ncn1 (centres undefined) | > 800 nM
O=C1Nc2ccccc2C(c2ccccc2)=NC1Nc1nnc(-c2ccc(N3CCOCC3)cc2Cl)o1 (centres undefined) | > 800 nM
O=C1Nc2ccccc2C(c2ccccc2)=NC1Nc1nnc(-c2cnccc2N2CCCCC2)o1 (centres undefined) | > 800 nM
Cc1cc(-c2nnc(NC3N=C(c4ccccc4)c4ccccc4NC3=O)o2)ccc1N1CCOCC1 (centres undefined) | in the range around 600 nM
O=C1Nc2ccccc2C(c2ccccc2)=NC1Nc1nnc(-c2cc3cccnc3s2)o1 (centres undefined) | > 800 nM
O=C1Nc2ccccc2C(c2ccccc2)=NC1Nc1nnco1 (centres undefined) | > 800 nM
O=C1Nc2ccccc2C(c2ccccc2)=NC1Nc1cc(N2CCOCC2)ncn1 (centres undefined) | > 800 nM
COc1ccc(-c2nnc(NC3N=C(c4ccccc4)c4ccccc4NC3=O)o2)nc1Cl (centres undefined) | > 800 nM
N#Cc1ccc(-c2nnc(NC3N=C(c4ccccc4)c4ccccc4NC3=O)o2)c(N2CCOCC2)c1 (centres undefined) | < 400 nM
N#Cc1cc(-c2nnc(NC3N=C(c4ccccc4)c4ccccc4NC3=O)o2)ccn1 (centres undefined) | > 800 nM
CS(=O)(=O)c1ccc(-c2nnc(NC3N=C(c4ccccc4)c4ccccc4NC3=O)o2)nc1 (centres undefined) | > 800 nM
Cn1nccc1-c1nnc(NC2N=C(c3ccccc3)c3ccccc3NC2=O)o1 (centres undefined) | > 800 nM

Compound | EC50
O=C1Nc2ccccc2C(c2ccccc2)=NC1Nc1nnc(C2CCNCC2)o1 (centres undefined) | > 800 nM
CS(=O)(=O)c1ccc(-c2nnc(NC3N=C(c4ccccc4)c4ccccc4NC3=O)o2)c(N2CCOCC2)c1 (centres undefined) | > 800 nM
O=C1Nc2ccccc2C(c2ccccc2)=NC1Nc1ncc(-c2ccccc2)s1 (centres undefined) | > 800 nM
COCc1cccc(-c2nnc(NC3N=C(c4ccccc4)c4ccccc4NC3=O)o2)n1 (centres undefined) | > 800 nM
O=C1Nc2ccccc2C(c2ccccc2)=NC1Nc1nnc([C@@H]2COCCN2)o1 (some centres undefined) | > 800 nM
O=C1Nc2ccccc2C(c2ccccc2)=NC1Nc1nc2ccccc2s1 (centres undefined) | > 800 nM
Cn1cnc(-c2nnc(NC3N=C(c4ccccc4)c4ccccc4NC3=O)o2)c1 (centres undefined) | > 800 nM
O=C1Nc2ccccc2C(c2ccccc2)=NC1Nc1nc(-c2ccccc2)ns1 (centres undefined) | > 800 nM
COc1ccc(CN2C(=O)C(NC(=S)NC(=O)c3ccccc3)N=C(c3ccccc3)c3ccccc32)cc1 (centres undefined) | > 800 nM
O=C1Nc2ccccc2C(c2ccccc2)=NC1Nc1nnc([C@H]2COCCN2)o1 (some centres undefined) | > 800 nM
O=C1Nc2ccccc2C(c2ccccc2)=NC1Nc1nnc(-c2ccc(F)nc2)o1 (centres undefined) | in the range around 600 nM
O=C1Nc2ccccc2C(c2ccccc2)=NC1Nc1nnc(-c2ccc(C(F)(F)F)nc2N2CCOCC2)o1 (centres undefined) | in the range around 600 nM
O=C1Nc2ccccc2C(c2ccccc2)=NC1Nc1nnc(-c2ccncc2)s1 (centres undefined) | > 800 nM
O=C1Nc2ccccc2C(c2ccccc2)=NC1Nc1nnc(-c2ccc(NC3CCCCC3)cc2)o1 (centres undefined) | > 800 nM
O=C1Nc2ccccc2C(c2ccccc2)=NC1Nc1nnc(-c2ccnc(F)c2)o1 (centres undefined) | < 400 nM
O=C1Nc2ccccc2C(c2ccccc2)=NC1Nc1nnc(-c2cccc(N3CCOCC3)c2)o1 (centres undefined) | > 800 nM
O=C1Nc2ccccc2C(c2ccccc2)=NC1Nc1nc(-c2ccccc2)no1 (centres undefined) | > 800 nM
O=C1Nc2ccccc2C(c2ccccc2)=NC1Nc1nnc(-c2ccccc2)s1 (centres undefined) | > 800 nM
O=C1Nc2ccccc2C(c2ccccc2)=NC1Nc1nnc(-c2ccncc2)o1 (centres undefined) | in the range around 600 nM
COc1ccnc(-c2nnc(NC3N=C(c4ccccc4)c4ccccc4NC3=O)o2)c1 (centres undefined) | > 800 nM
CCOC(=O)c1ncccc1N1CCOCC1 | < 400 nM
O=C1Nc2ccccc2C(c2ccccc2)=NC1Nc1nnc(-c2nccs2)o1 (centres undefined) | > 800 nM
COc1ccc(-c2nnc(NC3N=C(c4ccccc4)c4ccccc4NC3=O)o2)nc1 (centres undefined) | in the range around 600 nM
Cc1cc(-c2nnc(NC3N=C(c4ccccc4)c4ccccc4NC3=O)o2)on1 (centres undefined) | > 800 nM
